The source of these data is ChEMBL document CHEMBL1156407, “The antiplasmodial activity of isolates from Ajuga remota” (J Nat Prod, 2002).

Usually IC50 stands for the concentration needed to halve the response being measured. A low value points to greater potency in that assay.

Data set [1] relates to Plasmodium falciparum. The data set is described as follows: Antiplasmodial activity after 72 hrs against chloroquine-sensitive Plasmodium falciparum FCA10/GHA as LDH activity. It counts as functional, organism-based.
Data set [2] in a line: Selectivity index, ratio of ED50 for human A431 cells to IC50 for chloroquine-sensitive Plasmodium falciparum FCA10/GHA. The class given is functional, A-431.
Data set [3] can be described thus: Cytotoxicity against human A431 cells by MTT assay. To be noted: read-out: ED50 (the source's name). It counts as cell-based, A-431. On the technique in general: Formazan colour is commonly taken as a measure of viable cells.
Data set [4] relates to Plasmodium falciparum. The data set is described as follows: Antiplasmodial activity after 72 hrs against chloroquine-sensitive Plasmodium falciparum FCA10/GHA at 500 uM by LDH activity. It counts as functional, organism-based.

The source made the active and inactive calls. The calls are words filed in the database; no cut-off is given here.

`CC(=O)OC[C@@]12[C@@H](OC(C)=O)C[C@@H](C)[C@](C)(CCC3=CC(=O)OC3)[C@H]1CCC[C@]21CO1` [AJUGARIN I]: in the data set with Plasmodium falciparum [1], inhibition was half-maximal at 23 µM (IC50). In addition, in data set [2], the Ratio is given as more than 4. The CC50 in data set [3] is more than 88 µM.
Take `CC(=O)O[C@@]1(C)C[C@@H](O)[C@]2(O)C=CO[C@@H](O[C@@H]3O[C@H](CO)[C@@H](O)[C@H](O)[C@H]3O)[C@@H]21`: the CC50 in data set [3] is 310 µM. The outcome in the data set on Plasmodium falciparum [4] was inactive.
For `O=c1[nH]cc(F)c(=O)[nH]1` [FLUOROURACIL], in data set [3], the CC50 amounted to 44 µM.
As for `CC(C)C/C=C/C[C@H]1CC[C@@H]2[C@]1(C)CCC1[C@]23C=C[C@]2(C[C@@H](O)CC[C@]12C)OO3` (some centres undefined), the IC50 in the data set on Plasmodium falciparum [1] was 8.2 µM. In data set [2], the Ratio was more than 3. Moreover, the CC50 in data set [3] is more than 23 µM.
